From publication PMC10146957, “Systematic Studies on Anti-Cancer Evaluation of Stilbene and Dibenzo[b,f]oxepine Derivatives” (Molecules, 2023)

System: HDF-A cells
Experiment: MTT cytotoxicity assay, HDF-A cells
Assay type: cell-based
Conditions: Homo sapiens, HDFa; MTT, 48 h; mean ± SEM; read-out: HDF-A IC50
Method: (§1) Cells were cultured in a humidified incubator at 37 °C under 5% CO2. Human colorectal carcinoma (HCT116) cells were grown in McCoy’s 5A Medium (ATCC, Catalog No. 30-2007), human breast adenocarcinoma (MCF-7) and human dermal fibroblasts (HDF-A) cells were maintained in Dulbecco’s Modified Eagle’s Medium (DMEM, Sigma D5546) supplemented with 2 mM L-glutamine. Human embryonic kidney (HEK293) cell line was cultured in Dulbecco’s Modified Eagle’s Medium (DMEM, Gibco 31966-021). All culture media were supplemented with 1% Penicillin-Streptomycin (Sigma-Aldrich, P4333) and 10% fetal bovine serum (Gibco, 10270-106). Cells were sub-cultured at approximately 80–90% confluency to maintain the culture in the logarithmic growth phase.
(§2) Cells were seeded at a 96-well plate at the density of 7 × 10^3 cells per well and allowed to grow for 24 h. Afterward, the medium was aspirated and fresh medium was added (200 μL) with serial dilutions (100 − 10 μM) of tested compounds or DMSO at corresponding concentrations as a control. Following 48 h of incubation, the medium was replaced with phenol red-free medium (100 μL) containing MTT (3-(4,5-dimethylthiazol-2-yl)-2,5-diphenyl-2H-tetrazolium bromide, 0.5 mg/mL) and replaced in the incubator for 4 h. The formed formazan was dissolved in DMSO (100 μL) followed by incubation of the mixture at 37 °C for 10 min. The absorbance was measured at 540 nm. After blank subtraction, the half maximal effective concentration (EC50) was calculated by GraphPad Prism software (GraphPad Software Inc, San Diego, CA, USA).
Work on `COc1ccc(O)c(/C=C/c2ccc([N+](=O)[O-])cc2[N+](=O)[O-])c1` [Compound 1d, (E)-2-hydroxy-5-methoxy-2′,4′-dinitrostilbene] yielded an IC50 of 40 ± 2 µM.
`O=[N+]([O-])c1ccc2c(c1)Oc1cc(O)ccc1C=C2` [Compound 2i, 7-nitrodibenzo[b,f]oxepin-3-ol] gave an IC50 of 93 ± 7 µM.
Compound `COc1ccc(/C=C/c2ccc([N+](=O)[O-])cc2[N+](=O)[O-])c(O)c1` [Compound 1c, (E)-2-hydroxy-4-methoxy-2′,4′-dinitrostilbene] has an IC50 of 40 ± 4 µM.
`O=[N+]([O-])c1ccc(/C=C/c2ccccc2O)c([N+](=O)[O-])c1` [Compound 1a, (E)-2-hydroxy-2′,4′-dinitrostilbene] gave an IC50 of 38 ± 1 µM.
With `O=[N+]([O-])c1ccc(/C=C/c2ccc(O)cc2O)c([N+](=O)[O-])c1` [Compound 1i, (E)-2,4-dihydroxy-2′,4′-dinitrostilbene] the IC50 was 41 ± 2 µM.

Same assay, conditions: Homo sapiens, HDFa; predicted IC50, above the maximum concentration tested (100 μM); read-out: HDF-A IC50 (predicted)
`Nc1ccc2c(c1)Oc1ccc3ccccc3c1C=C2` [Compound 3h, benzo[b]naphtho[1,2-f]oxepin-9-amine] gave an IC50 greater than 100 µM.

System: not given
Experiment: not given
Design: method as in PMID 29318022
Conditions: generally well tolerated; cited from earlier work
For `COc1ccc(/C=C\c2cc(OC)c(OC)c(OC)c2)cc1OP(=O)(O)O` [CA4P/fosbretabulin, combretastatin A-4 phosphate], the side effect is listed as “acute but transient hypertension”.

System: U87 (glioblastoma) cells
Experiment: not given
Design: method as in PMID 31865147
Conditions: cited from earlier work
For `O=[N+]([O-])c1ccc2c(c1)Oc1ccc3ccccc3c1C=C2` [Compound 2h, 9-nitrobenzo[b]naphtho[1,2-f]oxepine], the “anti-cancer activity compared with HTC116 cells” value is listed as “significantly more active”.

System: HCT116 cells
Experiment: MTT cytotoxicity assay, HCT116 cells
Assay type: cell-based, human
Conditions: 100 μM, 48 h of treatment
Method: as §1, §2
With `COc1cccc(/C=C/c2ccc([N+](=O)[O-])cc2[N+](=O)[O-])c1O` [Compound 1b, (E)-2-hydroxy-3-methoxy-2′,4′-dinitrostilbene] the “cell viability (in words)” value was “only minimally affected”.
For `COc1cccc2c1Oc1cc([N+](=O)[O-])ccc1C=C2` [Compound 2b, 6-methoxy-3-nitrodibenzo[b,f]oxepine], the “cell viability (in words)” value was “only minimally affected”.
In the case of `COc1cc(O)c(/C=C/c2ccc([N+](=O)[O-])cc2[N+](=O)[O-])cc1OC` [Compound 1f, (E)-2-hydroxy-4,5-dimethoxy-2′,4′-dinitrostilbene], the “cell viability (in words)” value is reported as “only minimally affected”.

Same assay, conditions: Homo sapiens, HCT-116, 48 h, mean ± SEM
With `COc1ccc(O)c(/C=C/c2ccc([N+](=O)[O-])cc2[N+](=O)[O-])c1` [Compound 1d, (E)-2-hydroxy-5-methoxy-2′,4′-dinitrostilbene] the IC50 was 18 ± 3 µM.
`O=[N+]([O-])c1ccc2c(c1)Oc1cc(O)ccc1C=C2` [Compound 2i, 7-nitrodibenzo[b,f]oxepin-3-ol] showed an IC50 of 55 ± 4 µM.
With `COc1ccc(/C=C/c2ccc([N+](=O)[O-])cc2[N+](=O)[O-])c(O)c1` [Compound 1c, (E)-2-hydroxy-4-methoxy-2′,4′-dinitrostilbene] the IC50 was 38 ± 5 µM.
`O=[N+]([O-])c1ccc(/C=C/c2ccccc2O)c([N+](=O)[O-])c1` [Compound 1a, (E)-2-hydroxy-2′,4′-dinitrostilbene] showed an IC50 of 23 ± 1 µM.
`Nc1ccc2c(c1)Oc1ccc3ccccc3c1C=C2` [Compound 3h, benzo[b]naphtho[1,2-f]oxepin-9-amine] gave an IC50 of 66 ± 2 µM.
`O=[N+]([O-])c1ccc(/C=C/c2ccc(O)cc2O)c([N+](=O)[O-])c1` [Compound 1i, (E)-2,4-dihydroxy-2′,4′-dinitrostilbene] gave an IC50 of 52 ± 2 µM.

System: not listed separately
Experiment: MTT cytotoxicity assay, HCT116 cells
Assay type: cell-based, human
Conditions: human, HCT116 cells (human colorectal carcinoma), 100 μM, 48 h of treatment, read-out: cell viability
Method: as §1, §2
Work on `COc1ccc(O)c(/C=C/c2ccc([N+](=O)[O-])cc2[N+](=O)[O-])c1` [Compound 1d, (E)-2-hydroxy-5-methoxy-2′,4′-dinitrostilbene] yielded a viability at 48 h, 100 µM of less than 30%.
With `O=[N+]([O-])c1ccc2c(c1)Oc1cc(O)ccc1C=C2` [Compound 2i, 7-nitrodibenzo[b,f]oxepin-3-ol] the viability at 48 h, 100 µM was less than 30%.
Work on `COc1ccc(/C=C/c2ccc([N+](=O)[O-])cc2[N+](=O)[O-])c(O)c1` [Compound 1c, (E)-2-hydroxy-4-methoxy-2′,4′-dinitrostilbene] yielded a viability at 48 h, 100 µM of less than 30%.
With `O=[N+]([O-])c1ccc(/C=C/c2ccccc2O)c([N+](=O)[O-])c1` [Compound 1a, (E)-2-hydroxy-2′,4′-dinitrostilbene] the viability at 48 h, 100 µM was less than 30%.
In the case of `Nc1ccc2c(c1)Oc1ccc3ccccc3c1C=C2` [Compound 3h, benzo[b]naphtho[1,2-f]oxepin-9-amine], the viability at 48 h, 100 µM is reported as less than 30%.
Compound `O=[N+]([O-])c1ccc(/C=C/c2ccc(O)cc2O)c([N+](=O)[O-])c1` [Compound 1i, (E)-2,4-dihydroxy-2′,4′-dinitrostilbene] has a viability at 48 h, 100 µM of less than 30%.

System: normal cell lines
Experiment: not given
Design: method as in PMID 31865147
Conditions: cited from earlier work
In the case of `O=[N+]([O-])c1ccc2c(c1)Oc1ccc3ccccc3c1C=C2` [Compound 2h, 9-nitrobenzo[b]naphtho[1,2-f]oxepine], the “activity in normal cell lines” value is listed as “severe activity”.

System: HCT116 cells
Experiment: Immunofluorescence of microtubular network (anti-α-tubulin 12G10)
Assay type: cell-based, human
Conditions: 60 µm of compound, 24 h, anti-α-tubulin staining
Method: Cells were seeded on coverslips at a 24-well plate at a density of 5 × 10^4 cells per well and allowed to grow overnight. Next medium was replaced with a medium containing 60 μM solution of the selected compound and incubated for 24 h. Then, cells were fixed and permeabilized with 100% methanol at −20 °C for 15 min and subsequently washed three times with PBS at room temperature. After 1 h blocking with 3% BSA/PBS at 4 °C, slides were incubated with anti-alpha-tubulin 12G10 primary antibody (Developmental Studies Hybridoma Bank, University of Iowa, Iowa City, IA, USA) (diluted to 2 µg/mL in 3% BSA/PBS) overnight at 4 °C. After 3 × 10 min washing with PBS, slides were incubated with AlexaFluor 555-conjugated secondary antibody (diluted to 50 ng/mL in 3% BSA/PBS) (Thermo Fisher Scientific, Waltham, MA, USA, A31570) for 1 h at room temperature. After washing (3 × 10 min with PBS), slides were mounted in Fluoromount-G (Southern Biotech., Birmingham, AL, USA). Cells were recorded using Leica TCS SP8 (Leica Microsystems, Wetzlar, Germany) confocal microscope.
With `COc1ccc(O)c(/C=C/c2ccc([N+](=O)[O-])cc2[N+](=O)[O-])c1` [Compound 1d, (E)-2-hydroxy-5-methoxy-2′,4′-dinitrostilbene] the “effect on microtubular network” value was “density of the microtubular network was decreased”.

System: HeLa (cervical cancer) cells
Experiment: not given
Design: method as in PMID 31865147
Conditions: cited from earlier work
In the case of `O=[N+]([O-])c1ccc2c(c1)Oc1ccc3ccccc3c1C=C2` [Compound 2h, 9-nitrobenzo[b]naphtho[1,2-f]oxepine], the “anti-cancer activity compared with HTC116 cells” value is given as “significantly more active”.

System: MCF-7 cells
Experiment: MTT cytotoxicity assay, MCF-7 cells
Assay type: cell-based
Conditions: Homo sapiens, MCF7, 48 h, mean ± SEM
Method: as §1, §2
For `COc1ccc(O)c(/C=C/c2ccc([N+](=O)[O-])cc2[N+](=O)[O-])c1` [Compound 1d, (E)-2-hydroxy-5-methoxy-2′,4′-dinitrostilbene], the IC50 was 47 ± 1 µM.
`O=[N+]([O-])c1ccc2c(c1)Oc1cc(O)ccc1C=C2` [Compound 2i, 7-nitrodibenzo[b,f]oxepin-3-ol] gave an IC50 of 67 ± 6 µM.
Work on `COc1ccc(/C=C/c2ccc([N+](=O)[O-])cc2[N+](=O)[O-])c(O)c1` [Compound 1c, (E)-2-hydroxy-4-methoxy-2′,4′-dinitrostilbene] yielded an IC50 of 43 ± 2 µM.
`O=[N+]([O-])c1ccc(/C=C/c2ccccc2O)c([N+](=O)[O-])c1` [Compound 1a, (E)-2-hydroxy-2′,4′-dinitrostilbene] gave an IC50 of 36 ± 2 µM.
With `O=[N+]([O-])c1ccc(/C=C/c2ccc(O)cc2O)c([N+](=O)[O-])c1` [Compound 1i, (E)-2,4-dihydroxy-2′,4′-dinitrostilbene] the IC50 was 69 ± 3 µM.

System: not given
Experiment: not given
Conditions: not given
Work on `COc1cccc(/C=C/c2ccc([N+](=O)[O-])cc2[N+](=O)[O-])c1O` [Compound 1b, (E)-2-hydroxy-3-methoxy-2′,4′-dinitrostilbene] yielded a melting point of 182 °C.
`COc1ccc(O)c(/C=C/c2ccc([N+](=O)[O-])cc2[N+](=O)[O-])c1` [Compound 1d, (E)-2-hydroxy-5-methoxy-2′,4′-dinitrostilbene] gave a melting point of 168 °C.
`O=[N+]([O-])c1ccc2c(c1)Oc1cc(O)ccc1C=C2` [Compound 2i, 7-nitrodibenzo[b,f]oxepin-3-ol] showed a melting point of 164 °C.
For `COc1cccc2c1Oc1cc([N+](=O)[O-])ccc1C=C2` [Compound 2b, 6-methoxy-3-nitrodibenzo[b,f]oxepine], the melting point was 184 °C.
In the case of `O=[N+]([O-])c1ccc(/C=C/c2ccccc2O)c([N+](=O)[O-])c1` [Compound 1a, (E)-2-hydroxy-2′,4′-dinitrostilbene], the melting point is reported as 192 °C.
In the case of `COc1cc(O)c(/C=C/c2ccc([N+](=O)[O-])cc2[N+](=O)[O-])cc1OC` [Compound 1f, (E)-2-hydroxy-4,5-dimethoxy-2′,4′-dinitrostilbene], the melting point is reported as 221 °C.
`Nc1ccc2c(c1)Oc1ccc3ccccc3c1C=C2` [Compound 3h, benzo[b]naphtho[1,2-f]oxepin-9-amine] gave a melting point of 172 °C.
For `O=[N+]([O-])c1ccc(/C=C/c2ccc(O)cc2O)c([N+](=O)[O-])c1` [Compound 1i, (E)-2,4-dihydroxy-2′,4′-dinitrostilbene], the melting point was 201 °C.
`O=[N+]([O-])c1ccc2c(c1)Oc1ccc3ccccc3c1C=C2` [Compound 2h, 9-nitrobenzo[b]naphtho[1,2-f]oxepine] showed a melting point of 197 °C.

System: HEK293 cells
Experiment: MTT cytotoxicity assay, HEK293 cells
Assay type: cell-based
Conditions: Homo sapiens, 48 h, mean ± SEM
Method: as §1, §2
For `COc1ccc(O)c(/C=C/c2ccc([N+](=O)[O-])cc2[N+](=O)[O-])c1` [Compound 1d, (E)-2-hydroxy-5-methoxy-2′,4′-dinitrostilbene], the IC50 was 33 ± 2 µM.
`O=[N+]([O-])c1ccc2c(c1)Oc1cc(O)ccc1C=C2` [Compound 2i, 7-nitrodibenzo[b,f]oxepin-3-ol] showed an IC50 of 88 ± 5 µM.
`COc1ccc(/C=C/c2ccc([N+](=O)[O-])cc2[N+](=O)[O-])c(O)c1` [Compound 1c, (E)-2-hydroxy-4-methoxy-2′,4′-dinitrostilbene] showed an IC50 of 34 ± 4 µM.
In the case of `O=[N+]([O-])c1ccc(/C=C/c2ccccc2O)c([N+](=O)[O-])c1` [Compound 1a, (E)-2-hydroxy-2′,4′-dinitrostilbene], the IC50 is reported as 18 ± 1 µM.
Work on `Nc1ccc2c(c1)Oc1ccc3ccccc3c1C=C2` [Compound 3h, benzo[b]naphtho[1,2-f]oxepin-9-amine] yielded an IC50 of 48 ± 3 µM.
With `O=[N+]([O-])c1ccc(/C=C/c2ccc(O)cc2O)c([N+](=O)[O-])c1` [Compound 1i, (E)-2,4-dihydroxy-2′,4′-dinitrostilbene] the IC50 was 54 ± 2 µM.
